“And” between values parts separate entries of the source, which are not always exact repeats. Identical values can stand only once. “Also recorded” adds a separate entry of the source.
Key:
[1] = Single i.v. dose toxicity: hematology; format: in vivo, Sprague-Dawley rats
Description: (§1) On day 15, urine was collected on all surviving animals for urinalysis. The animals were euthanized and bled via cardiac puncture. Blood was collected for hematology, clinical chemistry, and coagulation analysis. Tissues were collected, weighed, and stored in 10% neutral-buffered formalin for possible future analysis.

[2] = target: nAChR α3/β4 (Homo sapiens, UniProt P30926+P32297); format: cell-based; details: with 10 μM Ach
nAChR α3/β4, sequence (P32297 32-505): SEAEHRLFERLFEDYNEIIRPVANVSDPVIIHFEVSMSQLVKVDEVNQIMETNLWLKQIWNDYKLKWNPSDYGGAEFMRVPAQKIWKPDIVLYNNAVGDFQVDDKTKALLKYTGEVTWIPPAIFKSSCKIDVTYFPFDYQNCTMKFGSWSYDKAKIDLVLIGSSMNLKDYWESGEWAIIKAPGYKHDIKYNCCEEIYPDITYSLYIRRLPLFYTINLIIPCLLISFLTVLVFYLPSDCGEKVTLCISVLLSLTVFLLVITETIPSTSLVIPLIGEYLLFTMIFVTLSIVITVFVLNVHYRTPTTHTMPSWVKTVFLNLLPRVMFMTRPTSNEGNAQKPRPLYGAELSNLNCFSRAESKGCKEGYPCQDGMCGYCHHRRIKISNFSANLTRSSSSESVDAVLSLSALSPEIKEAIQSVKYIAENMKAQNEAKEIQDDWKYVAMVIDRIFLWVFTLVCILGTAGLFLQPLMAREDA
nAChR α3/β4, sequence (P30926 22-498): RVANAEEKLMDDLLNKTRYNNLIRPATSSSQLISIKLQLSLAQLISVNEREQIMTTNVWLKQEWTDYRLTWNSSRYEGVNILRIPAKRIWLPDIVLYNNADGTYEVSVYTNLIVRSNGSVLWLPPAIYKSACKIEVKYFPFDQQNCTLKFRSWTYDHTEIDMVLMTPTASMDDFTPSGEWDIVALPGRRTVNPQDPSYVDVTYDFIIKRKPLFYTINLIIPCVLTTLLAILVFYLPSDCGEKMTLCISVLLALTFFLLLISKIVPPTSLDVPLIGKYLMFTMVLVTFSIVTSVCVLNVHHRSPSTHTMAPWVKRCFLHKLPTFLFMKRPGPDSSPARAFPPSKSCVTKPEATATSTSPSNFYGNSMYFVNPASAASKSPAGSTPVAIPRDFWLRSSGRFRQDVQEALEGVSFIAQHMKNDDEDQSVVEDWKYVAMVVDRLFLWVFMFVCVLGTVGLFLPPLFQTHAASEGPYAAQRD
Experimental: (§2) Briefly, cells were incubated with […] dye for 30 min at 37° C.

[3] = target: T1, nAChR α4/β2 (Homo sapiens, UniProt P17787+P43681); format: cell-based; details: 100 μM Ach + 0.3 μM epibatidine; not concentration-dependent, IC50s could not be determined
T1 construct: host or cells: HEK293 cells, transient
T1 sequence (P43681 29-627): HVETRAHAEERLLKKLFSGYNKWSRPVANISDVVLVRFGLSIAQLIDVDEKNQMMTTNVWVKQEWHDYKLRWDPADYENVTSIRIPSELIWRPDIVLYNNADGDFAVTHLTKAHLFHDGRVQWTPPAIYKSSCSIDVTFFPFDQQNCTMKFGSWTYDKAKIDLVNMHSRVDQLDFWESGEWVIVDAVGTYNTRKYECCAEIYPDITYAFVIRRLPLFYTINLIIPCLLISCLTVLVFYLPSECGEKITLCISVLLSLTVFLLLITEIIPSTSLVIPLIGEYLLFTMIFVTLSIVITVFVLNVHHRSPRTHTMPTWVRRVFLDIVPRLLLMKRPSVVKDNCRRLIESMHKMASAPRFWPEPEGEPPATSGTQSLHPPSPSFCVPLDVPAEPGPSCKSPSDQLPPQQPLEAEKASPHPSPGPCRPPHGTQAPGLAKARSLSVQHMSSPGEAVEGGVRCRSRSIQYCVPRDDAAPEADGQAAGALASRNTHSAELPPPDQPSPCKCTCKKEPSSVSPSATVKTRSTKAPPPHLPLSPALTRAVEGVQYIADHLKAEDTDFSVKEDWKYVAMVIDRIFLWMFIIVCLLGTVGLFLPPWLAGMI
T1 sequence (P17787 26-502): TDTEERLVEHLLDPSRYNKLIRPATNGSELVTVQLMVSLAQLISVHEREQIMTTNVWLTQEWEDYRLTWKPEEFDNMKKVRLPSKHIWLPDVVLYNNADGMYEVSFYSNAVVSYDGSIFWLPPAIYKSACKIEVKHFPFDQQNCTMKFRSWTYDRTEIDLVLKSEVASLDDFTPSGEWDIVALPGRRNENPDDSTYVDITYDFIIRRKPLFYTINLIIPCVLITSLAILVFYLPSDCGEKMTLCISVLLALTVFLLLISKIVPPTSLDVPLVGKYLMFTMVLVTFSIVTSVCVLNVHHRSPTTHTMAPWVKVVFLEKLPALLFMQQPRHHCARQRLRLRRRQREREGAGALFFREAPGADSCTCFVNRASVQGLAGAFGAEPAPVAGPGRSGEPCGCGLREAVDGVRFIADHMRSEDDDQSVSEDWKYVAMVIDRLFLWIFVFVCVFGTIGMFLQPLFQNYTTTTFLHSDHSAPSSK
Experimental: as §2

[4] = Single i.v. dose toxicity: coagulation (aPTT, PT); format: in vivo, Sprague-Dawley rats; details: for ACTIVE PARTIAL THROMBOPLASTIN TIME: Anatabine 0.1 mg/kg single i.v. dose
Description: as §1

[5] = 0.1 mg/kg, gender M, group mean
[6] = 0.75 mg/kg, gender F, group mean
[7] = 0.75 mg/kg, gender M, group mean
[8] = anatabine 0.1 mg/kg, female rats, individual animals
[9] = anatabine 0.1 mg/kg, male rats, individual animals
[10] = anatabine 0.75 mg/kg, female rats, individual animals
[11] = anatabine 0.75 mg/kg, male rats, individual animals

C1=CCC(c2cccnc2)NC1 (racemic) [Anatabine, 1,2,3,6-tetrahydro-[2,3′]bipyridinyl]
NEUTROPHIL SEG [1, 5]: 8.6% | PLATELET COUNT [1, 5]: 1.2486e+06 µL⁻¹ | RBC [1, 5]: 7.4e+06 µL⁻¹ | RETICULOCYTE COUNT [1, 5]: 5.5% | WBC [1, 5]: 15600 µL⁻¹ | BASOPHIL [1, 6]: 0.0% | EOSINOPHIL [1, 6]: 0.0% | MONOCYTE [1, 6]: 0.8% | NEUTROPHIL SEG [1, 6]: 8.6% | PLATELET COUNT [1, 6]: 1.2696e+06 µL⁻¹ | RBC [1, 6]: 7.5e+06 µL⁻¹ | RETICULOCYTE COUNT [1, 6]: 3.3% | WBC [1, 6]: 10300 µL⁻¹ | BASOPHIL [1, 7]: 0.0% | EOSINOPHIL [1, 7]: 0.0% | MCHC [1, 7]: 34.0% | MONOCYTE [1, 7]: 1.4% | NEUTROPHIL SEG [1, 7]: 9.8% | PLATELET COUNT [1, 7]: 1.3258e+06 µL⁻¹ | RBC [1, 7]: 7.5e+06 µL⁻¹ | RETICULOCYTE COUNT [1, 7]: 4.4% | WBC [1, 7]: 12100 µL⁻¹ | ANISOCYTOSIS [1, 8]: SLIGHT | BASOPHIL [1, 8]: 0% | EOSINOPHIL [1, 8]: 0% | HCT [1, 8]: 44% | HGB [1, 8]: 17 gm/dL | LYMPHOCYTE [1, 8]: 89% and 90% and 91% and 93% and 88% | MCHC [1, 8]: 34% | MONOCYTE [1, 8]: 3% and 2% (2×) and 1% (2×) | NEUTROPHILSEG [1, 8]: 8% (2×) and 7% and 6% and 11% | PLATELETEST [1, 8]: ADEQUATE; also recorded: DECREASED | POLYCHROMASIA [1, 8]: SLIGHT | RETICULOCYTE COUNT [1, 8]: 4.8% and 5.4% and 6.1% and 3.7% and 2.4% | ANISOCYTOSIS [1, 9]: SLIGHT | BASOPHIL [1, 9]: 0% | EOSINOPHIL [1, 9]: 0% (4×) and 1% | HCT [1, 9]: 45% | LYMPHOCYTE [1, 9]: 87% (2×) and 94% and 90% and 88% | MCHC [1, 9]: 34% (2×) and 32% | MONOCYTE [1, 9]: 1% (2×) and 3% (2×) and 2% | NEUTROPHILSEG [1, 9]: 12% and 3% and 7% and 10% and 11% | PLATELETEST [1, 9]: ADEQUATE; also recorded: INCREASED | POLYCHROMASIA [1, 9]: SLIGHT | RETICULOCYTE COUNT [1, 9]: 6.1% and 5.4% and 4.7% and 5.6% and 5.9% | ANISOCYTOSIS [1, 10]: SLIGHT | BASOPHIL [1, 10]: 0% | EOSINOPHIL [1, 10]: 0% | HGB [1, 10]: 15 gm/dL | LYMPHOCYTE [1, 10]: 93% (2×) and 87% and 91% and 89% | MONOCYTE [1, 10]: 1% (2×) and 0% (2×) and 2% | NEUTROPHILSEG [1, 10]: 6% and 12% and 9% (2×) and 7% | PLATELETEST [1, 10]: ADEQUATE; also recorded: INCREASED | POLYCHROMASIA [1, 10]: SLIGHT | RETICULOCYTE COUNT [1, 10]: 3.4% and 1.8% and 3.2% and 3.8% and 4.1% | ANISOCYTOSIS [1, 11]: SLIGHT | BASOPHIL [1, 11]: 0% | EOSINOPHIL [1, 11]: 0% | LYMPHOCYTE [1, 11]: 86% and 89% (2×) and 92% and 88% | MCH [1, 11]: 21 UUG and 22 UUG | MONOCYTE [1, 11]: 1% (3×) and 2% (2×) | NEUTROPHILSEG [1, 11]: 13% and 10% (3×) and 6% | PLATELETEST [1, 11]: ADEQUATE; also recorded: DECREASED | POLYCHROMASIA [1, 11]: SLIGHT | RETICULOCYTE COUNT [1, 11]: 3.6% and 4.2% and 4.1% and 4.7% and 5.3% | mean corpuscular hemoglobin concentration (MCHC) vs control ([1]; female rats, 0.1 mg/kg anatabine i.v.): small but statistically significant decrease | mean corpuscular volume (MCV) and mean corpuscular hemoglobin (MCH) vs control ([1]; female rats, […] anatabine, 0.75 mg/kg nicotine i.v.): small, but statistically significant decreases | potentiation [2]: Neither nicotine nor anatabine potentiated | inhibition [3]: inhibited receptor activity | ACTIVE PARTIAL THROMBOPLASTIN TIME ([4]; female rats, individual animals B6-B10): 26 s | ACTIVE PARTIAL THROMBOPLASTIN TIME ([4]; male rats, individual animals B1-B5): 32 s | aPTT and PT vs vehicle control ([4]; rat, each anatabine treatment group): no significant differences in aPTT or PT
